Values quoted from earlier work, collected in patent US20170196950A1, “METHOD FOR PRODUCING AUTOLOGOUS TOLEROGENIC DENDRITIC CELLS (TOLDCS) WITH SPECIFIC ANTIGENS AND THEIR USE IN THE PREPARATION OF A MEDICAMENT USEFUL FOR THE TREATMENT OF SYSTEMIC LUPUS ERYTHEMATOSUS (SLE)” (PONTIFICIA UNIVERSIDAD CATOLICA DE CHILE, priority 2014, published 2017).

Key:
lupus nephritis patients = conditions: maintenance phase
lupus patients = conditions: controlled clinical studies

Patients withdrawn from the study (lupus nephritis patients)	Compound	Patients who presented serious adverse effects (lupus nephritis patients)	Efficacy in lupus (lupus patients)
25.2%	COc1c(C)c2c(c(O)c1C/C=C(\C)CCC(=O)OCCN1CCOCC1)C(=O)OC2 [MMF, mycophenolate mofetil]	23.5%	
39.6%	Cn1cnc([N+](=O)[O-])c1Sc1ncnc2nc[nH]c12 [azathioprine]	33.3%	
	rituximab		no efficacy
